Experimental data reported in patent US7163800B2, “Methods of screening compositions for G protein-coupled receptor desensitization inhibitory activity” (Molecular Devices Corporation, priority 2000, dated 2007).
Read-outs that look alike come from different tables or passages of the source.

Legend:
[1] = molecular target: human vasopressin V2 receptor (V2R) (Homo sapiens, UniProt P30518); assay: arrestin-GFP localization (Fgrains) assay in U20S-V2R/ArrGFP cells, arginine vasopressin stimulated; type: cell-based; settings: 100 nM arginine vasopressin
Method: The assay was carried out using two different “double stable” human osteosarcoma cell (U20S) lines. […] The other cell line (U20S-V2R/ArrGFP) stably expressed V2R and the same arrestin-GFP conjugate.
The two cell lines (U20S-β2AR/ArrGFP and U20S-V2R/ArrGFP) were separately plated at 7000 cells/well on 384 well glass bottom plates. Two plates of U20S-β2AR/ArrGFP cells were prepared and two plates of U20S-V2R/ArrGFP cells were prepared.
Growth media was replaced with serum free media (i.e., Eagle's minimum essential medium (EMEM) buffered with 10 mM HEPES (N-2-Hydroxyethylpiperazine-N′-2-ethanesulfonic acid)) 24 hours after plating of the cells.
Each test compound was solvated using 100% dimethyl sulfoxide (DMSO). Multiple solutions of each compound were prepared at varying concentrations for testing in separate wells of each plate. If needed, the solutions were sonicated and heated to increase solubility. After preparation of the compound solutions, they were shielded from light.
Each of the solutions of varying concentrations of the fifteen compounds was added to a well on each of the four plates. The β2AR RT and V2R RT plates were incubated for 30 minutes at room temperature and atmospheric CO2.
Agonist was then added to each well. […] The β2AR RT and V2R RT plates were incubated for 30 minutes at room temperature and atmospheric CO2.
Each assay was then terminated using 1% paraformaldehyde containing 1 μM DRAQ5 DNA probe to fix the cells. The cells were analyzed using a pre-production model (alpha unit) of the IN Cell Analyzer 3000 (Amersham Biosciences), which is a line scanning, confocal imaging system. The IN Cell Analyzer 3000 was used to quantitate the localization of the arrestin-GFP conjugate for the cells in each well using the Amersham Biosciences granularity analysis GRNO algorithm. This algorithm finds the nucleus of cells and then dilates out a specified distance in which fluorescent spots or “grains” of arrestin-GFP localization are identified based on size and fluorescent intensity. The average of the fluorescent intensity of the identified grains per cell in an acquired image (i.e., Fgrains) was determined for each well on the plates.
The graphs for each compound as well as for the propanolol control are illustrated in FIGS. 7–22.
The curve-fitting program allowed the minimum and maximum values as well as the slope and EC50 values to vary rather than fixing the values to specified or collected values.

[2] = molecular target: HA-tagged human β2-adrenergic receptor (β2AR) (Homo sapiens, UniProt P07550); assay: arrestin-GFP localization (Fgrains) assay in U20S-β2AR/ArrGFP cells, isoproterenol stimulated
Method: Each of the fifteen compounds was separately screened for GPCR desensitization inhibitory activity against HA-tagged human β2-adrenergic receptor (β2AR) and against human vasopressin V2 receptor (V2R). In addition, the effects of temperature and carbon dioxide (CO2) were evaluated with respect to each compound.

β2AR and V2R = settings: inhibitory activity shown for both β2AR and V2R
Text: Each of the fifteen compounds was separately screened for GPCR desensitization inhibitory activity against HA-tagged human β2-adrenergic receptor (β2AR) and against human vasopressin V2 receptor (V2R).
As indicated by the Fgrains values for the cells in the Basal and Stimulated control wells, the Fgrains value determined by the IN Cell Analyzer 3000 in this example was functionally a measure of the average extent of desensitization in the cells in each well.

[3] = V2R CO2 plate: 37° C., 5% CO2/95% O2
[4] = V2R RT plate: room temperature, atmospheric CO2
[5] = B2AR CO2 plate: 37° C., 5% CO2/95% O2, 100 nM isoproterenol
[6] = B2AR RT plate: room temperature, atmospheric CO2, 100 nM isoproterenol
[7] = EC50, B2AR CO2 plate: 37° C., 5% CO2/95% O2, 100 nM isoproterenol
[8] = EC50, B2AR RT plate: room temperature, atmospheric CO2, 100 nM isoproterenol

Compound	EC50 [1, 3] [µM]	Max Rsp (change between fitted maximum and fitted minimum Fgrains) [1, 3]	Min (fitted minimum Fgrains) [1, 3]	pEC50 [1, 3]	slope of concentration-response curve [1, 3]	EC50 [1, 4] [µM]	Max Rsp (change between fitted maximum and fitted minimum Fgrains) [1, 4]	Min (fitted minimum Fgrains) [1, 4]	pEC50 [1, 4]	slope of concentration-response curve [1, 4]	EC50 [2, 5] [µM]	Max Rsp (change between fitted maximum and fitted minimum Fgrains) [2, 5]	Min (fitted minimum Fgrains) [2, 5]	pEC50 [2, 5]	slope of concentration-response curve [2, 5]	Max Rsp (change between fitted maximum and fitted minimum Fgrains) [2, 6]	Min (fitted minimum Fgrains) [2, 6]	pEC50 [2, 6]	slope of concentration-response curve [2, 6]	indication of non-receptor-specific GPCR desensitization inhibitory activity (β2AR and V2R)	also measured
Bisindolylmaleimide VI	24.6	499	94	4.6	0.8	18.3	696	−118	4.7	1.2	12.7	270	170	4.9	2.4	210	213	5.0	4.4	non-receptor-specific GPCR desensitization inhibitory activity	EC50 [2, 6]: 9 µM
C[n+]1cc2c3c(ccc2c2ccc4cc5c(cc4c21)OCO5)OCO3 [Sanguinarine Chloride (S5890), Sanguinarine Chloride]		546	27		2.1		533	27		2.0		312	108		3.3	340	61		1.3	non-receptor-specific GPCR desensitization inhibitory activity	EC50 [2, 7]: 7 µM; EC50 [2, 8]: 7.7 µM
NCCCn1cc(C2=C(c3c[nH]c4ccccc34)C(=O)NC2=O)c2ccccc21 [Bisindolylmaleimide III]	6	298	291	5.2	1.9	19.3	361	225	4.7	0.9	11.1	194	243	5.0	1.8	232	212	4.7	1.2	non-receptor-specific GPCR desensitization inhibitory activity	EC50 [2, 6]: 22.4 µM
O=C1NC(=O)C(c2cn(CCCN3CCNCC3)c3ccccc23)=C1c1c[nH]c2ccccc12 [Bisindolylmaleimide VII]	9.3	336	250	5.0	2.4	36.6	717	−130	4.4	1.1	21.2	278	167	4.7	2.3	281	148	4.6	2.2	non-receptor-specific GPCR desensitization inhibitory activity	EC50 [2, 6]: 24.9 µM
C[n+]1cc2c3c(ccc2c2ccc4cc5c(cc4c21)OCO5)OCO3 [Sanguinarine Chloride (LOPAC), Sanguinarine Chloride]		519	63		2.6		508	45		2.3		350	85		1.6	330	76		1.8	non-receptor-specific GPCR desensitization inhibitory activity	EC50 [2, 7]: 3.3 µM; EC50 [2, 8]: 2.8 µM
Cl.NCCCn1cc(C2=C(c3c[nH]c4ccccc34)C(=O)NC2=O)c2ccccc21 [Bisindolylmaleimide III, Hydrochloride]		455	129	4.6	1.4	51.2	690	−118	4.3	1.2		998	−568	3.6	1.1	171	237	4.5	3.5	non-receptor-specific GPCR desensitization inhibitory activity	EC50 ([1]; V2R CO2 plate: 37° C., 5% CO2/95% O2, Hydrochloride): 27.2 µM; EC50 ([2]; B2AR CO2 plate: 37° C., 5% CO2/95% O2, 100 nM isoproterenol, Hydrochloride): 233 µM; EC50 ([2]; B2AR RT plate: room temperature, atmospheric CO2, 100 nM isoproterenol, Hydrochloride): 34.9 µM
CCC(=O)n1nc2c(c1C(C)(C)C)C(=O)c1ccccc1-2 [3-tert-Butyl-2-propionyl-2H-indeno[1,2-c]pyrazol-4-one]												129	307		3.2						EC50 [2]: 46.9 µM
Cn1cc(C2=C(c3c4n(c5ccccc35)CCC(CN)C4)C(=O)NC2=O)c2ccccc21 (stereo not drawn) [RO-31-8425]	13.9	532	60	4.9	1.0	6.9	342	241	5.2	1.5	8.8	203	233	5.1	2.1	359	60	4.6	1.3	non-receptor-specific GPCR desensitization inhibitory activity	EC50 [2, 6]: 23.2 µM
O=C1NC(=O)C(c2c[nH]c3ccccc23)=C1c1c[nH]c2ccccc12 [Bisindolylmaleimide IV]	69.2	277	292	4.2	6.5																
